In ChEMBL document CHEMBL1201862, “PubChem BioAssay data set” (2004):
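All cell lines were grown in 96-well plates and treated with compound for 48 hours. GI50 = concentration required for 50% inhibition of growth.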 Calls of active or inactive are those of the source. Rule as the data show it: active = GI50 up to about 1.1 µM and inactive = higher.

Assays:
Assay in all cases: growth of human tumour cells (NCI), 48 h
[1] = system: RXF 393
[2] = system: SR
[3] = system: DU-145
[4] = system: SW-620
[5] = system: HOP-62
[6] = system: M14
[7] = system: OVCAR-5
[8] = system: COLO 205
[9] = system: KM12
[10] = system: HL-60
[11] = system: CAKI-1
[12] = system: OVCAR-8
[13] = system: RPMI-8226
[14] = system: U-251
[15] = system: HT-29
[16] = system: NCI/ADR-RES
[17] = system: MDA-MB-231
[18] = system: LOX IMVI
[19] = system: OVCAR-3

Row | SMILES | GI50 [1] | GI50 [2] | GI50 [3] | GI50 [4] | GI50 [5] | GI50 [6] | GI50 [7] | GI50 [8] | GI50 [9] | GI50 [10] | GI50 [11] | GI50 [12] | GI50 [13] | GI50 [14] | GI50 [15] | GI50 [16] | GI50 [17] | GI50 [18] | GI50 [19]
1 | COc1cc(C(=O)Oc2c(C#N)sc3c2c(=O)n(-c2ccccc2)c(=S)n3-c2ccccc2)cc(OC)c1OC | 8.99 µM (inactive) | > 100 µM (inactive) | 19.8 µM (inactive) | 24.2 µM (inactive) | 19.5 µM (inactive) | 12.8 µM (inactive) | 17.6 µM (inactive) | 15.8 µM (inactive) | 18.9 µM (inactive) | 18.8 µM (inactive) | 21.2 µM (inactive) | 10.9 µM (inactive) | 9.08 µM (inactive) | 12.5 µM (inactive) | 3.4 µM (inactive) | 16.6 µM (inactive) | 20.8 µM (inactive) | 19.9 µM (inactive) | 22.7 µM (inactive)
2 | ClCCN1CCO/C1=N/c1ccc2c(c1)CCCC2 | 8.39 µM (inactive) | 19.6 µM (inactive) | 15.7 µM (inactive) | 22.3 µM (inactive) | 4.67 µM (inactive) | 13.3 µM (inactive) | 17.3 µM (inactive) | 12.2 µM (inactive) | 17.9 µM (inactive) | 4.25 µM (inactive) | 16 µM (inactive) | 5.13 µM (inactive) | 4.76 µM (inactive) | 4.65 µM (inactive) | 14.4 µM (inactive) | 18.1 µM (inactive) | 13.4 µM (inactive) | 13.4 µM (inactive) | 13 µM (inactive)
3 | O=C1Nc2ccccc2/C1=N/Nc1ccccc1[N+](=O)[O-] | 35.6 µM (inactive) | 6.62 µM (inactive) | 33.6 µM (inactive) | 32.1 µM (inactive) | 19.3 µM (inactive) | 87.5 µM (inactive) | 38.3 µM (inactive) | 69.7 µM (inactive) | 33.8 µM (inactive) | > 100 µM (inactive) | 21.6 µM (inactive) | 23.3 µM (inactive) | 80.7 µM (inactive) | 15.5 µM (inactive) | > 100 µM (inactive) | 17 µM (inactive) | 28.4 µM (inactive) | 36.4 µM (inactive) | 10.5 µM (inactive)
4 | C=C(Cl)[C@](Cl)(CBr)CC[C@@H](Br)C(C)(C)Cl [HALOMON] | 0.121 µM (active) | 7.21 µM (inactive) | 1.1 µM (active) | 2.07 µM (inactive) | 0.23 µM (active) | 15.7 µM (inactive) | 1.56 µM (inactive) | 1.84 µM (inactive) | 0.927 µM (active) | 0.421 µM (active) | 0.337 µM (active) | 1.27 µM (inactive) | 0.0607 µM (active) | 0.181 µM (active) | 0.783 µM (active) | 1.69 µM (inactive) | 1.16 µM (inactive) | 17.7 µM (inactive) | 0.791 µM (active)
5 | COc1ccc(-n2c(=O)c3nc(S)[nH]c3n(-c3ccc(OC)cc3)c2=S)cc1 | > 100 µM (inactive) | > 100 µM (inactive) | > 100 µM (inactive) | > 100 µM (inactive) | > 100 µM (inactive) | > 100 µM (inactive) | > 100 µM (inactive) | > 100 µM (inactive) | > 100 µM (inactive) | > 100 µM (inactive) | > 100 µM (inactive) | > 100 µM (inactive) | > 100 µM (inactive) | > 100 µM (inactive) | > 100 µM (inactive) | > 100 µM (inactive) | > 100 µM (inactive) | > 100 µM (inactive) | > 100 µM (inactive)
6 | COC(=O)c1c(C(=O)OC)c2ccccn2c1-c1cc(C)cc2c1C(=O)C=CC2=O | 14.1 µM (inactive) | 3.93 µM (inactive) | 14 µM (inactive) | 2.89 µM (inactive) | 15.7 µM (inactive) | 9.48 µM (inactive) | 12.1 µM (inactive) | 5.22 µM (inactive) | > 10 µM (inactive) | 2.24 µM (inactive) | 5.08 µM (inactive) | 6.3 µM (inactive) | 4.11 µM (inactive) |  | 11.2 µM (inactive) | 15.6 µM (inactive) | 10.4 µM (inactive) | > 10 µM (inactive) | 11 µM (inactive)
7 | O=C(CN1CCOCC1)CC(O)(C(F)(F)F)C(F)(F)F | 20.1 µM (inactive) | 79.4 µM (inactive) | > 100 µM (inactive) | 48.9 µM (inactive) |  | > 100 µM (inactive) | > 100 µM (inactive) | > 100 µM (inactive) | 77.8 µM (inactive) | 61.7 µM (inactive) | 78.3 µM (inactive) | > 100 µM (inactive) | 55.2 µM (inactive) | 51.4 µM (inactive) | > 10 µM (inactive) | > 100 µM (inactive) | > 100 µM (inactive) | 46 µM (inactive) | 35.9 µM (inactive)
